According to US6982257B1, “Vitamin D3 derivative and its production method” (Teijin Limited, priority 1997, dated 2006):
Each block holds one molecule with its values, some of them ahead of it.

Legend:
HL-60 cell = assay: Differentiation induction of HL-60 cell, nitroblue tetrazolium (NBT) reduction activity; format: cell-based; conditions: HL-60, 4 days culture
Text: Activities of Objective Compounds of the Present Invention on Differentiation Induction effect of HL-60 Cell
HL-60 cell was purchased from a cell bank (Japanese Cancer Research Resource Bank, Cell Number: JCRB 0085). The cell was stored as a frozen storage stock for preventing the change of cell characteristics attributable to successive cultivation. Before the initiation of experiments, the cell was defrosted, and successive cultivation was started for using the cell in the experiments. The cell which had been treated by successive culturing for about one to six months was used for the experiments. The successive culturing was carried out by centrifugally recovering cells from cultivation mixture in suspension culture, and diluting the collected cell concentrate in a fresh culture medium at a ratio of about 1/100 (1−2×10^5 cells/ml). As the culture medium, an RPMI-1640 medium containing 10% fetal bovine serum was used. Successively cultured cells were centrifugally collected, and they were dispersed in a culture medium at the concentration of 2×10^4 cells/ml. The dispersion was seeded into a 24-well culture petri dish at 1 ml/well. An ethanol solution (1×10^−9M to 1×10^−6M) of a compound of the present invention was added to this system at 1 μl/well. Further, regarding 1 α,25(OH)2D3, an ethanol solution of 1×10^−7 M to 1×10^−4 M was added at 1 μl/well, and for the control, ethanol was added at 1 μl/well. After culturing at 37° C. for 4 days under a 5% CO2 atmosphere, the cells were centrifugally collected. Nitroblue tetrazolium (NBT) reduction activity was determined as follows. That is, the collected cells were suspended in a fresh culture medium, and NBT and 12-O-tetradecanoylphorbol-13-acetate were added to the resultant suspension so that their concentrations became 0.1% and 100 nM, respectively. After the mixed suspension was incubated at 37° C. for 25 min, a cytospin sample was prepared. After air drying, it was stained with Kernechtrot, and the ratio of the positive cells of NBT reduction activity was determined under an optical microscope.
Activities of Compounds of the Present Invention on Nitroblue Tetrazolium

[1] = biological target: T1, bovine thymus 1α,25-dihydroxyvitamin D3 receptor (VDR) (Bos taurus, UniProt Q28037); conditions: relative intensity ratio based on 100 for 1α,25-dihydroxyvitamin D3, from the concentration inhibiting [3H]1α,25-dihydroxyvitamin D3 (0.1 nM) binding by 50%
T1 sequence (Q28037 1-426): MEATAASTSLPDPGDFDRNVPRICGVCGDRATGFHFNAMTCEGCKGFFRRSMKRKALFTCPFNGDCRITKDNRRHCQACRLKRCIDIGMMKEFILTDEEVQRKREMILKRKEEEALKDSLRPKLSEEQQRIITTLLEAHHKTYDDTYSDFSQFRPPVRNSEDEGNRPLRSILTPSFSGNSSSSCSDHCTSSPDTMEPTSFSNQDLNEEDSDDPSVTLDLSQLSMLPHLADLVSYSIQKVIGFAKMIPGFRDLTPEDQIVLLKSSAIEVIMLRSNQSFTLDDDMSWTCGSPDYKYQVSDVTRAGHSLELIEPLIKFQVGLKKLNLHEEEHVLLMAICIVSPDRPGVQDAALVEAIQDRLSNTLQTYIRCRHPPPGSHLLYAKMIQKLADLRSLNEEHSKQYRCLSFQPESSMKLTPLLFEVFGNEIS
Experimental: The content (about 25 mg) of an ampule of a bovine thymus vitamin D receptor kit made by Yamasa Shoyu Ltd. was dissolved in 55 ml of a 0.05 M phosphoric acid-0.5 M potassium buffer solution (pH 7.4). Fifty μl of the ethanol solution of a compound to be tested and 500 μl of the receptor solution were pre-incubated at room temperature for 1 hr. […] To 500 μl of the supernatant, 9.5 ml of a liquid scintillation cocktail (ACS-II) was added, and the radioactivity of the resultant mixture was measured by a liquid scintillation counter.

SMILES: C=C1/C(=C\C=C2/CCC[C@]3(C)[C@@H]([C@H](C)CCCC(C)(C)O)CC[C@@H]23)C[C@@H](O)C[C@@H]1O [1α,25-(OH)2VD3, 1α,25-dihydroxyvitamin D3, reference compound]
Positive cells (%) of nitroblue tetrazolium reduction activity (HL-60 cell; concentration 10^−7 M): 96.5 ± 1.0%
Positive cells (%) of nitroblue tetrazolium reduction activity (HL-60 cell; concentration 10^−8 M): 86.1 ± 2.6%
Positive cells (%) of nitroblue tetrazolium reduction activity (HL-60 cell; concentration 10^−9 M): 36.8 ± 2.0%
Positive cells (%) of nitroblue tetrazolium reduction activity (HL-60 cell; concentration 10^−10 M): 4.3 ± 1.2%

SMILES: C=C1C(=CC=C2CCCC3(C)C2CCC3C(C)CCCC(C)(C)O)CC(O)C(C)C1O [Compound (1), (20R)-1β,25-dihydroxy-2β-methyl-3β vitamin D3, reference compound]
Binding Affinity for VDR [1]: 0.05

SMILES: C=C1C(=CC=C2CCCC3(C)C2CCC3C(C)CCCC(C)(C)O)CC(O)C(C)C1O [Compound (2), (20R)-1α,25-dihydroxy-2β-methyl-3α vitamin D3, reference compound]
Binding Affinity for VDR [1]: 0.3

SMILES: C=C1C(=CC=C2CCCC3(C)C2CCC3C(C)CCCC(C)(C)O)CC(O)C(C)C1O [Compound (3), (20R)-1β,25-dihydroxy-2β-methyl-3β vitamin D3, reference compound]
Binding Affinity for VDR [1]: 0.8

SMILES: C=C1C(=CC=C2CCCC3(C)C2CCC3C(C)CCCC(C)(C)O)CC(O)C(C)C1O [Compound (4), (20R)-1α,25-dihydroxy-2α-methyl-3β vitamin D3, reference compound]
Binding Affinity for VDR [1]: 400

SMILES: C=C1C(=CC=C2CCCC3(C)C2CCC3C(C)CCCC(C)(C)O)CC(O)C(C)C1O [Compound (5), (20R)-1β,25-dihydroxy-2α-methyl-3β vitamin D3, reference compound]
Binding Affinity for VDR [1]: 0.05

SMILES: C=C1C(=CC=C2CCCC3(C)C2CCC3C(C)CCCC(C)(C)O)CC(O)C(C)C1O [Compound (6), (20R)-1α,25-dihydroxy-2α-methyl-3α vitamin D3, reference compound]
Binding Affinity for VDR [1]: 4

SMILES: C=C1C(=CC=C2CCCC3(C)C2CCC3C(C)CCCC(C)(C)O)CC(O)C(C)C1O [Compound (7), (20R)-1β,25-dihydroxy-2α-methyl-3α vitamin D3, reference compound]
Binding Affinity for VDR [1]: 0.06

SMILES: C=C1C(=CC=C2CCCC3(C)C2CCC3C(C)CCCC(C)(C)O)CC(O)C(C)C1O [Compound (65), (20R)-1α,25-dihydroxy-2β-methyl-3β vitamin D3, reference compound]
Binding Affinity for VDR [1]: 13

Binding Affinity for VDR [1]: 160
SMILES: C=C1/C(=C\C=C2/CCC[C@]3(C)[C@@H]([C@@H](C)CCCC(C)(C)O)CC[C@@H]23)C[C@@H](O)[C@@H](C)[C@@H]1O [Compound (68), (20S)-1α,25-dihydroxy-2β-methyl-3β-vitamin D3]
Positive cells (%) of nitroblue tetrazolium reduction activity (HL-60 cell; concentration 10^−9 M): 95.7 ± 1.0%
Positive cells (%) of nitroblue tetrazolium reduction activity (HL-60 cell; concentration 10^−10 M): 57.7 ± 5.0%
Positive cells (%) of nitroblue tetrazolium reduction activity (HL-60 cell; concentration 10^−11 M): 2.8 ± 0.7%
Positive cells (%) of nitroblue tetrazolium reduction activity (HL-60 cell; concentration 10^−12 M): 1.7 ± 0.3%

Binding Affinity for VDR [1]: 0.03
SMILES: C=C1/C(=C\C=C2/CCC[C@]3(C)[C@@H]([C@@H](C)CCCC(C)(C)O)CC[C@@H]23)C[C@@H](O)[C@@H](C)[C@H]1O [Compound (69), (20S)-1β,25-dihydroxy-2β-methyl-3β-vitamin D3]

Binding Affinity for VDR [1]: 0.08
SMILES: C=C1/C(=C\C=C2/CCC[C@]3(C)[C@@H]([C@@H](C)CCCC(C)(C)O)CC[C@@H]23)C[C@H](O)[C@@H](C)[C@@H]1O [Compound (70), (20S)-1α,25-dihydroxy-2β-methyl-3α-vitamin D3]

Binding Affinity for VDR [1]: 7
SMILES: C=C1/C(=C\C=C2/CCC[C@]3(C)[C@@H]([C@@H](C)CCCC(C)(C)O)CC[C@@H]23)C[C@H](O)[C@@H](C)[C@H]1O [Compound (71), (20S)-1β,25-dihydroxy-2β-methyl-3α-vitamin D3]
Positive cells (%) of nitroblue tetrazolium reduction activity (HL-60 cell; concentration 10^−9 M): 40.5 ± 1.8%
Positive cells (%) of nitroblue tetrazolium reduction activity (HL-60 cell; concentration 10^−10 M): 2.0 ± 1.0%
Positive cells (%) of nitroblue tetrazolium reduction activity (HL-60 cell; concentration 10^−11 M): 1.8 ± 0.8%
Positive cells (%) of nitroblue tetrazolium reduction activity (HL-60 cell; concentration 10^−12 M): 1.5 ± 0.8%

SMILES: C=C1C(=CC=C2CCCC3(C)C2CCC3C(C)CCCC(C)(C)O)CC(O)C(C)C1O [Compound (72), (20S)-1α,25-dihydroxy-2α-methyl-3β-vitamin D3]
Positive cells (%) of nitroblue tetrazolium reduction activity (HL-60 cell; concentration 10^−9 M): 96.2 ± 2.0%
Positive cells (%) of nitroblue tetrazolium reduction activity (HL-60 cell; concentration 10^−10 M): 95.7 ± 2.3%
Positive cells (%) of nitroblue tetrazolium reduction activity (HL-60 cell; concentration 10^−11 M): 94.4 ± 1.8%
Positive cells (%) of nitroblue tetrazolium reduction activity (HL-60 cell; concentration 10^−12 M): 3.7 ± 0.8%
Binding Affinity for VDR [1]: 1200

Binding Affinity for VDR [1]: 0.05
SMILES: C=C1/C(=C\C=C2/CCC[C@]3(C)[C@@H]([C@@H](C)CCCC(C)(C)O)CC[C@@H]23)C[C@@H](O)[C@H](C)[C@H]1O [Compound (73), (20S)-1β,25-dihydroxy-2α-methyl-3β-vitamin D3]

Binding Affinity for VDR [1]: 17
SMILES: C=C1/C(=C\C=C2/CCC[C@]3(C)[C@@H]([C@@H](C)CCCC(C)(C)O)CC[C@@H]23)C[C@H](O)[C@H](C)[C@@H]1O [Compound (74), (20S)-1α,25-dihydroxy-2α-methyl-3α-vitamin D3]
Positive cells (%) of nitroblue tetrazolium reduction activity (HL-60 cell; concentration 10^−9 M): 96.4 ± 1.4%
Positive cells (%) of nitroblue tetrazolium reduction activity (HL-60 cell; concentration 10^−10 M): 16.7 ± 1.1%
Positive cells (%) of nitroblue tetrazolium reduction activity (HL-60 cell; concentration 10^−11 M): 17.0 ± 2.3%
Positive cells (%) of nitroblue tetrazolium reduction activity (HL-60 cell; concentration 10^−12 M): 6.4 ± 1.1%

Binding Affinity for VDR [1]: 0.03
SMILES: C=C1/C(=C\C=C2/CCC[C@]3(C)[C@@H]([C@@H](C)CCCC(C)(C)O)CC[C@@H]23)C[C@H](O)[C@H](C)[C@H]1O [Compound (75), (20S)-1β,25-dihydroxy-2α-methyl-3α-vitamin D3]
